Measurements reported in ChEMBL document CHEMBL5291721, “A preclinical secondary pharmacology resource illuminates target-adverse drug reaction associations of marketed drugs” (Nat Commun, 2023).

Legend:
[1] = target: 5-hydroxytryptamine receptor 2B (Homo sapiens, UniProt P41595); assay type: functional, cell-based
[2] = target: T1, Muscarinic acetylcholine receptor M2 (Homo sapiens, UniProt P08172); assay type: functional, cell-based
T1 sequence (P08172 whole entry): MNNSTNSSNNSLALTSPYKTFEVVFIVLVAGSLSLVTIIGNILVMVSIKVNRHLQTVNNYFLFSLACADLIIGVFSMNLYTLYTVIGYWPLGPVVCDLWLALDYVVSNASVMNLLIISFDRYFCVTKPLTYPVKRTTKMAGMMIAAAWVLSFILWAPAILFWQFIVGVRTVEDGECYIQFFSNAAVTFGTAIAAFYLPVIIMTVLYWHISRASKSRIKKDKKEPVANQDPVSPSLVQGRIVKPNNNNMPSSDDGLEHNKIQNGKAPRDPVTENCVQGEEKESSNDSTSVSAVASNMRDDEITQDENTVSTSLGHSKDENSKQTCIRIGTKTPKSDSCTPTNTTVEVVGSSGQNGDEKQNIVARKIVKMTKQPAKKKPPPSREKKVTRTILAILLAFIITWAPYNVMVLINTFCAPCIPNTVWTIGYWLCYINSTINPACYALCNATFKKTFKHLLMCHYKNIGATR

[3] = target: T2, Alpha-2C adrenergic receptor (Homo sapiens, UniProt P18825); assay type: functional
T2 sequence (P18825 whole entry): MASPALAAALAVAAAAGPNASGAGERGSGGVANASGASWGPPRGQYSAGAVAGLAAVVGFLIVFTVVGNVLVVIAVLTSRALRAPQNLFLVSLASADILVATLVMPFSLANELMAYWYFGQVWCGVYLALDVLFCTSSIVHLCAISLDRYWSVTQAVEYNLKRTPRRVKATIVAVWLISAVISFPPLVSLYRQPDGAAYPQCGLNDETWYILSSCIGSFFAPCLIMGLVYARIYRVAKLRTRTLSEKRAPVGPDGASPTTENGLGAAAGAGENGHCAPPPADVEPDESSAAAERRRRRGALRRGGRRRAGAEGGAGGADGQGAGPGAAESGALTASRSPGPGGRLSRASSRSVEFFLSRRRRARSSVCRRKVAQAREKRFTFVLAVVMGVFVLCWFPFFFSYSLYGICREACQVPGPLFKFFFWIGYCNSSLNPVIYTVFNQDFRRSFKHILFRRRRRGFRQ

[4] = target: Voltage-gated inwardly rectifying potassium channel KCNH2 (Homo sapiens, UniProt Q12809); assay type: functional; details: read-out: AC50
B2 bradykinin receptor = target: T3, B2 bradykinin receptor (Homo sapiens, UniProt P30411)
T3 sequence (P30411 whole entry): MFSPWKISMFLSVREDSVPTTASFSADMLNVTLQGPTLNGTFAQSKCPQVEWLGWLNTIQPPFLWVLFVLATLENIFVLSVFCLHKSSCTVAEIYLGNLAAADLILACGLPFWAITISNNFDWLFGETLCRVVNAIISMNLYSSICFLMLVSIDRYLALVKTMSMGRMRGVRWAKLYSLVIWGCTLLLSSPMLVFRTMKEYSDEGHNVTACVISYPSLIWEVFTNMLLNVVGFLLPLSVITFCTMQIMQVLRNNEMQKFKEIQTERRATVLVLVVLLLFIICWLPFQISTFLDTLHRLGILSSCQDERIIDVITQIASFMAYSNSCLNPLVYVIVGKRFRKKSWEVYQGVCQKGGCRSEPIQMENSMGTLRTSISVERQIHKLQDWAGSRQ

[5] = target: T4, Cholecystokinin receptor type A (Homo sapiens, UniProt P32238)
T4 sequence (P32238 whole entry): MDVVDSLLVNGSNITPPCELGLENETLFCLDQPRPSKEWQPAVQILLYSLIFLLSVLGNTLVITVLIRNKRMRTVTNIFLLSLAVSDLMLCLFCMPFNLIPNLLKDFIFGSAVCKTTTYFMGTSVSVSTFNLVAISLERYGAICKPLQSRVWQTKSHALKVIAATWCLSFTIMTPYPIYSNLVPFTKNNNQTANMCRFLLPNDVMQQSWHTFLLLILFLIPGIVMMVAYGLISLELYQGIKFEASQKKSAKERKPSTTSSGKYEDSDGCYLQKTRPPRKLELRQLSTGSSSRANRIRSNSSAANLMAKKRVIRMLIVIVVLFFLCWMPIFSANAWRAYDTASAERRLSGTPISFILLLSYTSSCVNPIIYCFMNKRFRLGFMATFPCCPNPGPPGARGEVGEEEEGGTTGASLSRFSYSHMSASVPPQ

D(1A) dopamine receptor = D(1A) dopamine receptor (Homo sapiens, UniProt P21728); assay type: functional, cell-based
[6] = target: T5, Equilibrative nucleoside transporter 1 (Homo sapiens, UniProt Q99808)
T5 sequence (Q99808 whole entry): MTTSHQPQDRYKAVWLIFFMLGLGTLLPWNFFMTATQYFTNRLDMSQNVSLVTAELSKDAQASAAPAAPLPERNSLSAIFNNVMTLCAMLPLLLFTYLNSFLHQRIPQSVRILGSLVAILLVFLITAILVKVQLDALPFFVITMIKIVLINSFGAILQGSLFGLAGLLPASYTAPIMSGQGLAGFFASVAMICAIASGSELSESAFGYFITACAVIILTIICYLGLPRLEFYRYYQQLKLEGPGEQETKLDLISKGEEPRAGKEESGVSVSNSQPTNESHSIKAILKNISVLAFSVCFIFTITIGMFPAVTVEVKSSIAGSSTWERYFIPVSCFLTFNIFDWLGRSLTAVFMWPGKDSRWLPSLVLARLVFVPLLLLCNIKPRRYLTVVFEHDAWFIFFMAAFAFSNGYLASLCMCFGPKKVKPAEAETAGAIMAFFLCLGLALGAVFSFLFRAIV

[7] = target: T6, Alpha-2A adrenergic receptor (Homo sapiens, UniProt P08913); assay type: functional, cell-based
T6 sequence (P08913 whole entry): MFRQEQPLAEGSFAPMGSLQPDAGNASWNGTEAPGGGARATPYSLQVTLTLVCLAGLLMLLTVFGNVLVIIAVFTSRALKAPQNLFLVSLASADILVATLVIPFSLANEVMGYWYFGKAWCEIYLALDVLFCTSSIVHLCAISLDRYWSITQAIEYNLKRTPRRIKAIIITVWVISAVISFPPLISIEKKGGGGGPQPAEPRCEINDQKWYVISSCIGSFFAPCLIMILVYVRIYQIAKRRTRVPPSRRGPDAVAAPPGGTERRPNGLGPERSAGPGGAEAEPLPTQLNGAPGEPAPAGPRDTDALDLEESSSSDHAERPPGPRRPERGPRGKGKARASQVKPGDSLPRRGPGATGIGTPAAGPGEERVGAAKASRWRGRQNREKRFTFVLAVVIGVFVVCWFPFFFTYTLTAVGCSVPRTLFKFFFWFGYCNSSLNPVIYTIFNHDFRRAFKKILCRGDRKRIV
Note: assay procedure not described here.

Chain of D(1A) dopamine receptor (P21728 whole entry): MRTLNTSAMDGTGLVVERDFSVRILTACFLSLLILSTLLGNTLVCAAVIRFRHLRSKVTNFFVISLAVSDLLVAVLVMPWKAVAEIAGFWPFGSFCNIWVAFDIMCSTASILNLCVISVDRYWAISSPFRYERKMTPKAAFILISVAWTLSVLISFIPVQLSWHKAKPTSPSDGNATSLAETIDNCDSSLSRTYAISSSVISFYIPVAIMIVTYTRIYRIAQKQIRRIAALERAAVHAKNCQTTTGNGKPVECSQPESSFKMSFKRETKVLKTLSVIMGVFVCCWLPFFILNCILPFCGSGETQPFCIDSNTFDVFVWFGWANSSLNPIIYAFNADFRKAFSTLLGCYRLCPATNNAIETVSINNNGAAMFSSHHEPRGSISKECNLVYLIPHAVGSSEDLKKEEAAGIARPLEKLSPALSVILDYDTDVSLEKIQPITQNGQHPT
Chain of Voltage-gated inwardly rectifying potassium channel KCNH2 (Q12809 whole entry): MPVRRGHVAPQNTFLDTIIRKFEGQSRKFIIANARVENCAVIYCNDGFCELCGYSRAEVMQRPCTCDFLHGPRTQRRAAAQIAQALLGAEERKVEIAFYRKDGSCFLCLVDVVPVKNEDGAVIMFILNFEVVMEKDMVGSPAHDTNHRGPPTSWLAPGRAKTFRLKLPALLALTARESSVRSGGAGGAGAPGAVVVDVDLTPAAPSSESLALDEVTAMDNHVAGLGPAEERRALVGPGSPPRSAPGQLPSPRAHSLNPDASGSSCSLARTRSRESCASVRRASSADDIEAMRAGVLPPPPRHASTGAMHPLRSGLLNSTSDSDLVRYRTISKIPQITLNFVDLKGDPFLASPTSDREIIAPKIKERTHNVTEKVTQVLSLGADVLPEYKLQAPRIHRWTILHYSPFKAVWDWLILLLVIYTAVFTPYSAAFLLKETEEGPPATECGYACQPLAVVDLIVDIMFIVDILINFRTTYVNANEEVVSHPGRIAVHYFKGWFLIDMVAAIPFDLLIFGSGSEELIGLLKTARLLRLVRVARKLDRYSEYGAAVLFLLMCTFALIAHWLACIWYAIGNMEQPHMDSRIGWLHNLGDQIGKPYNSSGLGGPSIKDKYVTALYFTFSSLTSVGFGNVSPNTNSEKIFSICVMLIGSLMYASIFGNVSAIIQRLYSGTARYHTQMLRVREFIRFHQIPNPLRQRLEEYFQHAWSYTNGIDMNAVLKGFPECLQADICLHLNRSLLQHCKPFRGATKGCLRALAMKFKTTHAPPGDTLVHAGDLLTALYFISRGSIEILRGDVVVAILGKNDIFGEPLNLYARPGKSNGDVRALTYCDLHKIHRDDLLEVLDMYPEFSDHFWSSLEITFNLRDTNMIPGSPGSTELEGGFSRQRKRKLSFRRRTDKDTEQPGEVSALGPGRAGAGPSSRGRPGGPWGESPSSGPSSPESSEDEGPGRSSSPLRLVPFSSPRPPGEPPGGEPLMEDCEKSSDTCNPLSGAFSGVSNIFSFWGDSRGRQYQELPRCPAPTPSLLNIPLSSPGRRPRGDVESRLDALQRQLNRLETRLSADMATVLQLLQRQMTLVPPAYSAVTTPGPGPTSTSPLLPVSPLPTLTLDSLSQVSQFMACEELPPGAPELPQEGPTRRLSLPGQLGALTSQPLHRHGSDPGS
Chain of 5-hydroxytryptamine receptor 2B (P41595 whole entry): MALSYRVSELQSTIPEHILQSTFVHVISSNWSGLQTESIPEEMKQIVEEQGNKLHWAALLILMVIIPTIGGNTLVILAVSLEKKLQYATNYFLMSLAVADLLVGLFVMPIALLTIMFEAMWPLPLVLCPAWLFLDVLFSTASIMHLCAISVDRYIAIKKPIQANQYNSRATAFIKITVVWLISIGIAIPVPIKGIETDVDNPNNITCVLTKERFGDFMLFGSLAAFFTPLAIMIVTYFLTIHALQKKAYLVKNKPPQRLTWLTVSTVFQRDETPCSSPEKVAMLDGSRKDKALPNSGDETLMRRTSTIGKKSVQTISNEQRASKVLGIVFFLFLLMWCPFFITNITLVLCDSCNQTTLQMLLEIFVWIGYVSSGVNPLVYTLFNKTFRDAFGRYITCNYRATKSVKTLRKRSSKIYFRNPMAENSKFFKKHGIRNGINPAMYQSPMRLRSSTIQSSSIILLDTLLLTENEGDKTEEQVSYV

Compound | AC50 [1] [µM] | AC50 [2] [µM] | AC50 [3] [µM] | AC50 [4] [µM] | AC50 (B2 bradykinin receptor) [µM] | AC50 [5] [µM] | AC50 (D(1A) dopamine receptor) [µM] | AC50 [6] [µM] | AC50 [7] [µM]
Cn1c(=O)c2c(ncn2CC2OCCO2)n(C)c1=O [DOXOFYLLINE] | > 30 | > 30 | > 30 | > 30 | > 30 | > 30 | > 30 | > 30 | > 30
CCC1(CC)C(=O)NCC(C)C1=O (stereo unspecified) [METHYPRYLON] | > 30 | > 30 | > 30 | > 30 | > 30 | > 30 | > 30 | > 30 | > 30
O=C(NCCN1CCOCC1)c1ccc(Cl)cc1 [MOCLOBEMIDE] | > 10 | > 10 | > 10 | > 30 | > 10 | > 10 | > 10 | > 10 | > 10
CC(C(=O)O)c1ccc(N2Cc3ccccc3C2=O)cc1 (stereo unspecified) [INDOPROFEN] | > 30 | > 30 | > 30 | > 30 | > 30 | > 30 | 0.51 | > 30 | > 30
CCCC(=O)O[C@]1(C(=O)CO)CC[C@H]2[C@@H]3CCC4=CC(=O)CC[C@]4(C)[C@H]3[C@@H](O)C[C@@]21C [HYDROCORTISONE BUTYRATE] | > 10 | > 10 | > 10 | > 30 | > 10 | > 10 | > 10 | > 10 | > 10
O=C(O)CCCCCCCC(=O)O [AZELAIC ACID] | > 10 | > 10 | > 10 | > 30 | > 10 | > 10 | > 30 | > 10 | > 10
CN1CCC(=C2c3ccccc3CCc3sccc32)CC1 [PIZOTYLINE] | 0.0279 | 0.123 | 2.1 | 2.31 | > 30 | > 30 | > 30 | > 30 | 3.97
NCC[C@H](O)C(=O)N[C@@H]1C[C@H](N)[C@@H](O[C@H]2O[C@H](CN)[C@@H](O)[C@H](O)[C@H]2O)[C@H](O)[C@H]1O[C@H]1O[C@H](CO)[C@@H](O)[C@H](N)[C@H]1O [AMIKACIN] | > 10 | > 10 | > 10 | > 30 | > 10 | > 10 | > 10 | > 10 | > 10
C[C@H](N)[C@H](O)c1cccc(O)c1 [METARAMINOL] | 7.4 | > 10 | > 10 | > 30 | > 10 | > 10 | > 30 | > 10 | > 10
